Results: PMC11790914, “Chemogenomics for steroid hormone receptors (NR3)” (Communications Chemistry, 2025)
Several values for one entry are separate records, joined by “and”; a condition that tells them apart may be missing. Equal entries are not always repeated. Where two headings read alike, the source gives them in different places.

What was measured:
HEK293T cells [1] = experiment: Cytotoxicity: necrosis induction (red fluorescent dye for permeable plasma membranes); type: cell-based; details: 24 h, necrotic cell count normalized to 0.1% DMSO, single replicates;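 also: compounds applied in DMEM high glucose with 0.1% FCS and 0.1% DMSO, necrotic HEK293T cells counted by red staining of cells whose plasma membranes had become permeable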
ABL1 = biological target: T1, ABL1 (Homo sapiens, UniProt P00519); experiment: Liability panel screening by DSF: ABL1; type: binding; details: read-out: Mean ΔTM ABL1
T1 construct: made in house
T1 sequence (P00519 whole entry, species assumed): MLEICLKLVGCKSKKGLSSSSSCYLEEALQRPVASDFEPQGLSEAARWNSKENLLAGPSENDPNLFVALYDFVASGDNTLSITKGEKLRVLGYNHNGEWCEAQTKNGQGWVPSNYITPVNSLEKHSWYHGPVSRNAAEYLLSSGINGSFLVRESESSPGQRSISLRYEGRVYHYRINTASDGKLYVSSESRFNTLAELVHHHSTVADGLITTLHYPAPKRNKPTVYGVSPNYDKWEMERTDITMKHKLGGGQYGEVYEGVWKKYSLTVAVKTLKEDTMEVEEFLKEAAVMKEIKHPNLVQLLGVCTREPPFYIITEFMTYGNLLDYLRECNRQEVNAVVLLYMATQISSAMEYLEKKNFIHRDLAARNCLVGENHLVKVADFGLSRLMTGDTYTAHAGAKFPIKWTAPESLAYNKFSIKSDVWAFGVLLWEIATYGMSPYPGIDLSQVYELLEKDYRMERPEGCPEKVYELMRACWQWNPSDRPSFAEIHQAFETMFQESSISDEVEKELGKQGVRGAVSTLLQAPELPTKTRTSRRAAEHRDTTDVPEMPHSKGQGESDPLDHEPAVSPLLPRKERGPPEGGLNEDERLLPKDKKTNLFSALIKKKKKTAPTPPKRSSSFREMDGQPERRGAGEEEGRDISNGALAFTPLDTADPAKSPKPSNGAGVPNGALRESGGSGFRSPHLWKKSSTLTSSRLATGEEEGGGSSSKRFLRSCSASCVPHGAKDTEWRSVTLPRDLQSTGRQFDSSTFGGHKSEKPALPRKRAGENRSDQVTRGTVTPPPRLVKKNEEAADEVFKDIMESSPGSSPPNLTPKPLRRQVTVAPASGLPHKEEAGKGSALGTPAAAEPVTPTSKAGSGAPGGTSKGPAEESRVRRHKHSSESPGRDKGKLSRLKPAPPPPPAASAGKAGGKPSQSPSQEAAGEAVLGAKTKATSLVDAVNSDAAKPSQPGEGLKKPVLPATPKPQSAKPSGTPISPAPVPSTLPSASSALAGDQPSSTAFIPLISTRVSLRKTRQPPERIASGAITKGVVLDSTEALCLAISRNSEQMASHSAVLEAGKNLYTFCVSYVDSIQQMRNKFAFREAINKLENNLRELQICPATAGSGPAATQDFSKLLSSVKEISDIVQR
Protocol: (§1) Reference ligands are listed in the methods section.
(§2) In-house produced recombinantly expressed proteins[62] of the liability panel targets were diluted in a buffer containing 10 mM HEPES (pH 7.5) and 500 mM NaCl to a concentration of 2 µM. SYPRO Orange (Invitrogen, Carlsbad, California, USA; #S6650) as a fluorescence probe was added at a 1:1000 dilution to the proteins. […] Temperature-dependent unfolding profiles were measured on a QuantStudio™ 5 real-time PCR machine (Thermo Fisher Scientific, Waltham, Massachusetts, USA; #A28140). […] The temperature was increased 3 °C per minute to a maximum temperature of 85 °C. Experiments were run as technical duplicates. […] Data were analyzed with the internal Thermal Shift Software (version 1.4, Thermo Fisher Scientific) using the Boltzmann equitation to determine the inflection point of the transition curve. Differences in melting temperature are given as ∆Tm in K. […]
(§3) scanning fluorimetry (DSF).
(§4) a concentration of 20 µM.

AURKA = biological target: T2, AURKA (Homo sapiens, UniProt O14965); experiment: Liability panel screening by DSF: AURKA; type: binding; details: read-out: Mean ΔTM AURKA
T2 construct: made in house
T2 sequence (O14965 1-403): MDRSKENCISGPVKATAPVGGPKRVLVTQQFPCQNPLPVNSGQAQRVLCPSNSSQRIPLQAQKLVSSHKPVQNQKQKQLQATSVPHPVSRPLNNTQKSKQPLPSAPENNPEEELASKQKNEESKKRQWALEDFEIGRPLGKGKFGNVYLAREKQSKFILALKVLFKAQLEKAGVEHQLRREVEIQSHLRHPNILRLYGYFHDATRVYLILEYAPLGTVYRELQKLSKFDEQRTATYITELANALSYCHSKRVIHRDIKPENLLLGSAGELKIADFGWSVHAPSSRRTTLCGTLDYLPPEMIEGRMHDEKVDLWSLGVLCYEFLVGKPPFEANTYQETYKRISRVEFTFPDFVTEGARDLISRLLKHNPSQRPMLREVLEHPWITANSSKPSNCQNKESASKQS
Protocol: as §1, §2, §3, §4

CDK2 = biological target: T3, CDK2 (Homo sapiens, UniProt P24941); experiment: Liability panel screening by DSF: CDK2; type: binding; details: read-out: Mean ΔTM CDK2
T3 construct: made in house
Protocol: as §1, §2, §3, §4

FGFR3 = biological target: T4, FGFR3 (Homo sapiens, UniProt P22607); experiment: Liability panel screening by DSF: FGFR3; type: binding; details: read-out: Mean ΔTM FGFR3
T4 construct: made in house
T4 sequence (P22607 23-806, species assumed): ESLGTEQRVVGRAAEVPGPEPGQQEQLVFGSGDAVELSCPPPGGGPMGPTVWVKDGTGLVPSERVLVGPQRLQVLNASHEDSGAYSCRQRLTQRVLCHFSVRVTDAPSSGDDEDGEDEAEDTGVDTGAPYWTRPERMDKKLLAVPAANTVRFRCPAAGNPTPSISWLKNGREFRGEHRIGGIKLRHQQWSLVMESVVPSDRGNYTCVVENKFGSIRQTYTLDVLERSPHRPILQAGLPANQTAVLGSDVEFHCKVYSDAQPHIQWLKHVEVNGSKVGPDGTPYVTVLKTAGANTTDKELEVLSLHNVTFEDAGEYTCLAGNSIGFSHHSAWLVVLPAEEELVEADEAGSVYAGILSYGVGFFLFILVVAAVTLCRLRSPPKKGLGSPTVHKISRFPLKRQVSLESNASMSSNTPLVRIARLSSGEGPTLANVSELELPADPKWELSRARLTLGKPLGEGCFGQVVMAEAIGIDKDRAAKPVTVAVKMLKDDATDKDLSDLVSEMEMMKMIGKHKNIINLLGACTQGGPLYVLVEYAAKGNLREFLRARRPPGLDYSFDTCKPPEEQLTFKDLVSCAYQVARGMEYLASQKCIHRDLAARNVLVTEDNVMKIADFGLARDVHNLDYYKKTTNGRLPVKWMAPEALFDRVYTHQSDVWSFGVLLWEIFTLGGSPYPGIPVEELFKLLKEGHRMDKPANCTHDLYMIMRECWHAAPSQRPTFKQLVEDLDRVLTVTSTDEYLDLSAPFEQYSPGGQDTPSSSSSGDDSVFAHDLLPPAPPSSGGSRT
Protocol: as §1, §2, §3, §4

GSK3B = biological target: T5, GSK3B (Homo sapiens, UniProt P49841); experiment: Liability panel screening by DSF: GSK3B; type: binding; details: read-out: Mean ΔTM GSK3B
T5 construct: made in house
T5 sequence (P49841 whole entry, species assumed): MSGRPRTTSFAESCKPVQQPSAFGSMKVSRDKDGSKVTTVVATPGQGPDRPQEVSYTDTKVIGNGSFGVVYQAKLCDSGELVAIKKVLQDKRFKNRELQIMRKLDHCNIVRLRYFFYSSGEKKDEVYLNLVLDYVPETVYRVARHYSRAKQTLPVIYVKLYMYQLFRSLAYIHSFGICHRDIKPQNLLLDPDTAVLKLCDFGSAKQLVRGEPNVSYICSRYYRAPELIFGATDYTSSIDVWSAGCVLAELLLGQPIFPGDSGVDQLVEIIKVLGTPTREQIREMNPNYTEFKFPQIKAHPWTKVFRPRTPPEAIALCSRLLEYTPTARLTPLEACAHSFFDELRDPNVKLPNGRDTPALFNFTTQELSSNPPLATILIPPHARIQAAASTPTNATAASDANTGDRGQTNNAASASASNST

BRD4 = biological target: T6, BRD4 (Homo sapiens, UniProt O60885); experiment: Liability panel screening by DSF: BRD4; type: binding; details: read-out: Mean ΔTM BRD4
T6 construct: This panel comprised ten highly ligandable kinases and bromodomains; made in house
Protocol: as §1, §2, §3, §4

BRPF1 = biological target: T7, BRPF1 (Homo sapiens, UniProt P55201); experiment: Liability panel screening by DSF: BRPF1; type: binding; details: read-out: Mean ΔTM BRPF1
T7 construct: This panel comprised ten highly ligandable kinases and bromodomains; made in house
T7 sequence (P55201 628-732 limits assumed): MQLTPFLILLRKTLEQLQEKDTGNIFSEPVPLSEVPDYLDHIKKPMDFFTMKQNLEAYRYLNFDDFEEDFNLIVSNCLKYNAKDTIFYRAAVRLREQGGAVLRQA
Protocol: as §1, §2, §3, §4

CSNK1D = biological target: T8, CSNK1D (Homo sapiens, UniProt P48730); experiment: Liability panel screening by DSF: CSNK1D; type: binding; details: read-out: Mean ΔTM CSNK1D
T8 construct: made in house
T8 sequence (P48730 whole entry, species assumed): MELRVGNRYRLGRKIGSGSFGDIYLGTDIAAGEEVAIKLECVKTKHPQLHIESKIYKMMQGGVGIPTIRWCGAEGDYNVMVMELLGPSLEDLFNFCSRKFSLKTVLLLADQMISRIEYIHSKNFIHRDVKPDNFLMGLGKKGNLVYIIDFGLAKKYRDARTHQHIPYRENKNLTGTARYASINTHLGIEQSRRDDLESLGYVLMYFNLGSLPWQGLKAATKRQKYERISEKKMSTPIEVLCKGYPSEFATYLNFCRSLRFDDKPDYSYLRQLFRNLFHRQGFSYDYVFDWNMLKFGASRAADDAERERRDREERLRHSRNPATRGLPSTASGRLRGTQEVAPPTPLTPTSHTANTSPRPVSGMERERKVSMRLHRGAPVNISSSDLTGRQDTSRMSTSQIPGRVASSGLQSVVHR
Protocol: as §1, §2, §3, §4

MAPK1 = biological target: T9, MAPK1 (Homo sapiens, UniProt P28482); experiment: Liability panel screening by DSF: MAPK1; type: binding; details: read-out: Mean ΔTM MAPK1
T9 construct: made in house
T9 sequence (P28482 whole entry, species assumed): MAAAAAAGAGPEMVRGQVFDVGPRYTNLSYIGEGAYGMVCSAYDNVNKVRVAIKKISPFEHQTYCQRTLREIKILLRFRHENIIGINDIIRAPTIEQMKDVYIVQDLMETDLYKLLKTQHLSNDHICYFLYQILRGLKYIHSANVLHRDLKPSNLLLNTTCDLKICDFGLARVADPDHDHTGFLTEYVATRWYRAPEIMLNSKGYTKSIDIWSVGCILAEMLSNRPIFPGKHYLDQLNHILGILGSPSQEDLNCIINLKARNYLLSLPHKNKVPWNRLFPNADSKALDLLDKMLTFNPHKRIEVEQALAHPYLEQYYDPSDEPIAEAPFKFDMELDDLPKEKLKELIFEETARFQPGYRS
Protocol: as §1, §2, §3, §4

TRIM24 = biological target: T10, TRIM24 (Homo sapiens, UniProt O15164); experiment: Liability panel screening by DSF: TRIM24; type: binding; details: read-out: Mean ΔTM TRIM24
T10 construct: This panel comprised ten highly ligandable kinases and bromodomains; made in house
T10 sequence (O15164 899-1004 limits assumed): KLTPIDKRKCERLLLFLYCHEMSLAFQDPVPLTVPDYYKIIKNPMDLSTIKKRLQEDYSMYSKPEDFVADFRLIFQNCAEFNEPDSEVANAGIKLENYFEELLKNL
Protocol: as §1, §2, §3, §4

[2] = test system: NF-κB activity in HEK293 NF-κB reporter cells; experiment: NF-kB activity assay (GFP reporter, ionomycin/PMA); type: cell-based; details: for Mean NFκB response: n=3
Protocol: Fig. 6 Application of the NR3 CG set.
After 24 h, cells were incubated with the test compounds solubilized with 0.1% DMSO in the same medium without puromycin. After 4 h incubation, ionomycin (100 ng/mL) and phorbol-12-myristat-13-acetate (PMA, 10 ng/mL) was added, and the cells were imaged for confluence and GFP expression every 90 min. over 24 h using a Tecan SPARK Cyto (Tecan). The number of GFP expressing cells was normalized to confluence in each sample. Each sample was repeated in three biologically independent experiments.

[3] = test system: ATF6 activity in Hela ATF6 reporter cells; experiment: Endoplasmic reticulum stress assay (ATF6 Renilla luciferase reporter, tunicamycin); type: cell-based; details: for ATF6 activity (tunicamycin-induced endoplasmic reticulum stress): Hela ATF6 reporter cells, tunicamycin 100 ng/mL, 18 h, compounds at recommended concentrations, n = 5
Protocol: After 24 h, cells were incubated with the test compounds solubilized with 0.1% DMSO in the same medium without puromycin. After 4 h incubation, tunicamycin (100 ng/mL) was added. After another 18 h incubation, cells were assayed for renilla luminescence using DualGlo reagent (Promega) on a Tecan SPARK Cyto (Tecan). Test samples were normalized to the 0.1% DMSO control. Each sample was repeated in five biologically independent experiments.

HEK293T cells [4] = experiment: Cytotoxicity: metabolic activity (WST-8 / CCK-8 assay); details: HEK293T, 24 h, WST-8, normalized to 0.1% DMSO, single replicates
HEK293T cells [5] = experiment: Cytotoxicity: growth-rate (change in confluence over 24 h); details: normalized to 0.1% DMSO control, single replicates (n=1...)
HEK293T cells [6] = experiment: Cytotoxicity: apoptosis induction (caspase-3/7 DEVD fluorogenic DNA dye); details: HEK293T, 24 h, apoptotic cell count normalized to 0.1% DMSO, single replicates

## CN(C)CCOc1ccc(/C(=C(/CCCO)c2ccccc2)c2ccc(O)cc2)cc1 [GSK5182]
HEK293T cells [1]; 10 µM
  Necrosis induction [NI]: 0.56 and 0.11 and 0.30 and 0.25
ABL1; DSF, 20 µM, n=2
  ΔTm at 20 µM: 0.43 °C
AURKA; DSF, 20 µM, n=2
  ΔTm at 20 µM: -0.17 °C
CDK2; DSF, 20 µM, n=2
  ΔTm at 20 µM: 0.68 °C
FGFR3; DSF, 20 µM, n=2
  ΔTm at 20 µM: 0.62 °C
GSK3B; DSF, 20 µM, n=2
  ΔTm at 20 µM: -1.96 °C
BRD4; DSF, 20 µM, n=2
  ΔTm at 20 µM: -2.92 °C
BRPF1; DSF, 20 µM, n=2
  ΔTm at 20 µM: -1.74 °C
CSNK1D; DSF, 20 µM, n=2
  ΔTm at 20 µM: -0.68 °C
MAPK1; DSF, 20 µM, n=2
  ΔTm at 20 µM: 0.14 °C
TRIM24; DSF, 20 µM, n=2
  ΔTm at 20 µM: -0.25 °C
[2]; 10 µM, 1,5 h
  Mean NFκB response: 4124.00 GFP+-cells/confluence ∙ 1000
[2]; 10 µM, 4,5 h
  Mean NFκB response: 4518.85 GFP+-cells/confluence ∙ 1000
[2]; 10 µM, 7,5 h
  Mean NFκB response: 8291.63 GFP+-cells/confluence ∙ 1000
[2]; 10 µM, 10,5 h
  Mean NFκB response: 18033.90 GFP+-cells/confluence ∙ 1000
[2]; 10 µM, 13,5 h
  Mean NFκB response: 26386.99 GFP+-cells/confluence ∙ 1000
[2]; 10 µM, 16,6 h
  Mean NFκB response: 32458.21 GFP+-cells/confluence ∙ 1000
[2]; 10 µM, 19,5 h
  Mean NFκB response: 36483.54 GFP+-cells/confluence ∙ 1000
[2]; 10 µM, 22,5 h
  Mean NFκB response: 40081.60 GFP+-cells/confluence ∙ 1000
[2]; 10 µM, 3 h
  Mean NFκB response: 4121.32 GFP+-cells/confluence ∙ 1000
[2]; 10 µM, 6 h
  Mean NFκB response: 5330.81 GFP+-cells/confluence ∙ 1000
[2]; 10 µM, 9 h
  Mean NFκB response: 13339.51 GFP+-cells/confluence ∙ 1000
[2]; 10 µM, 12 h
  Mean NFκB response: 22208.27 GFP+-cells/confluence ∙ 1000
[2]; 10 µM, 15 h
  Mean NFκB response: 29794.15 GFP+-cells/confluence ∙ 1000
[2]; 10 µM, 18 h
  Mean NFκB response: 34711.23 GFP+-cells/confluence ∙ 1000
[2]; 10 µM, 21 h
  Mean NFκB response: 38030.00 GFP+-cells/confluence ∙ 1000
[2]; 10 µM, 24 h
  Mean NFκB response: 41021.29 GFP+-cells/confluence ∙ 1000
[3]
  ATF6 activity (tunicamycin-induced endoplasmic reticulum stress): lacked this effect
[3]; Homo sapiens, HeLa, 10 µM, single replicates n=1 to n=5, read-out: ER stress [rel. ATF6 activity]
  activity at 10 µM: 88%
HEK293T cells [4]; 10 µM
  Metabolic activity [MA]: 0.99 and 0.91 (2×) and 0.85 and 1.04 and 1.01 and 0.95 and 0.93
HEK293T cells [5]; 10 µM
  Growth rate [GR]: 0.52 and 3.08 and 0.59 and 0.82 and 0.68 and 0.29 and 0.42 and 1.20 and 1.31 and 8.43
HEK293T cells [6]; 10 µM
  Apoptosis induction [AI]: 0.95 and 1.15 and 0.71 and 1.22 (2×) and 1.40

## O=S(=O)(Cc1ccccc1)Nc1ccc(-c2ccc3c(cnn3-c3ccc(F)cc3)c2)c(C(F)(F)F)c1 [GSK9027]
HEK293T cells [1]; 1 µM
  Necrosis induction [NI]: 0.93 and 0.78 and 0.76 and 1.05
ABL1
  ΔTm at 20 µM: 1.8 °C
AURKA
  ΔTm at 20 µM: 1.2 °C
CDK2
  ΔTm at 20 µM: 0.1 °C
FGFR3
  ΔTm at 20 µM: -0.29 °C
GSK3B
  ΔTm at 20 µM: 1.24 °C
BRD4
  ΔTm at 20 µM: 1.58 °C
BRPF1
  ΔTm at 20 µM: 1.21 °C
CSNK1D
  ΔTm at 20 µM: -1.92 °C
MAPK1
  ΔTm at 20 µM: -2.07 °C
TRIM24
  ΔTm at 20 µM: 1.36 °C
[2]; 1 µM, 1,5 h
  Mean NFκB response: 2917.80 GFP+-cells/confluence ∙ 1000
[2]; 1 µM, 4,5 h
  Mean NFκB response: 3437.70 GFP+-cells/confluence ∙ 1000
[2]; 1 µM, 7,5 h
  Mean NFκB response: 4957.90 GFP+-cells/confluence ∙ 1000
[2]; 1 µM, 10,5 h
  Mean NFκB response: 8098.89 GFP+-cells/confluence ∙ 1000
[2]; 1 µM, 13,5 h
  Mean NFκB response: 11113.03 GFP+-cells/confluence ∙ 1000
[2]; 1 µM, 16,6 h
  Mean NFκB response: 13521.21 GFP+-cells/confluence ∙ 1000
[2]; 1 µM, 19,5 h
  Mean NFκB response: 14898.72 GFP+-cells/confluence ∙ 1000
[2]; 1 µM, 22,5 h
  Mean NFκB response: 15985.14 GFP+-cells/confluence ∙ 1000
[2]; 1 µM, 3 h
  Mean NFκB response: 2869.62 GFP+-cells/confluence ∙ 1000
[2]; 1 µM, 6 h
  Mean NFκB response: 4105.89 GFP+-cells/confluence ∙ 1000
[2]; 1 µM, 9 h
  Mean NFκB response: 6294.49 GFP+-cells/confluence ∙ 1000
[2]; 1 µM, 12 h
  Mean NFκB response: 9593.56 GFP+-cells/confluence ∙ 1000
[2]; 1 µM, 15 h
  Mean NFκB response: 12593.25 GFP+-cells/confluence ∙ 1000
[2]; 1 µM, 18 h
  Mean NFκB response: 14186.97 GFP+-cells/confluence ∙ 1000
[2]; 1 µM, 21 h
  Mean NFκB response: 15313.70 GFP+-cells/confluence ∙ 1000
[2]; 1 µM, 24 h
  Mean NFκB response: 16630.14 GFP+-cells/confluence ∙ 1000
[2]; HEK293 NF-κB reporter cells, compounds at recommended concentrations, imaged over 24 h, n = 3
  NF-κB activity (inflammatory response to ionomycin/PMA): consistently delayed and strongly diminished NF-κB activity
[3]
  ATF6 activity (tunicamycin-induced endoplasmic reticulum stress): Consistently weaker ATF6 activity
[3]; Homo sapiens, HeLa, 1 µM, single replicates n=1 to n=5, read-out: ER stress [rel. ATF6 activity]
  activity at 1 µM: 76%
HEK293T cells [4]; 1 µM
  Metabolic activity [MA]: 1.03 and 1.01 (3×) and 0.96 and 1.00 and 1.18 and 1.15
HEK293T cells [5]; 1 µM
  Growth rate [GR]: 0.54 and 0.80 and 0.72 and 0.98 and 0.70 and 0.66 and 0.84 and 1.89 and 2.05 and 4.10
HEK293T cells [6]; 1 µM
  Apoptosis induction [AI]: 0.65 and 1.04 and 0.83 and 0.94 and 0.36 and 0.86
